Measured values from PubChem BioAssay (NCI).
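48-hour exposure; five concentrations; linearly interpolated endpoints. GI50 is the concentration that inhibits growth by half. TGI marks complete inhibition of growth.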

Tests used:
Test in all cases: growth of human tumour cells (NCI), 48 h
[1] = tested on: CCRF-CEM leukemia
[2] = tested on: CAKI-1 renal
[3] = tested on: RXF 393 renal
[4] = tested on: OVCAR-4 ovarian
[5] = tested on: HT29 colon
[6] = tested on: SF-295 CNS
[7] = tested on: HCT-15 colon
[8] = tested on: U251 CNS
[9] = tested on: IGROV1 ovarian
[10] = tested on: COLO 205 colon
[11] = tested on: 786-0 renal
[12] = tested on: K-562 leukemia
[13] = tested on: MDA-MB-468 breast
[14] = tested on: A498 renal
[15] = tested on: MDA-MB-435
[16] = tested on: SF-268 CNS
[17] = tested on: NCI/ADR-RES ovarian
[18] = tested on: TK-10 renal
[19] = tested on: HL-60(TB) leukemia
[20] = tested on: OVCAR-5 ovarian
[21] = tested on: SK-MEL-5 melanoma
[22] = tested on: M14 melanoma
[23] = tested on: ACHN renal
[24] = tested on: HOP-62 NSCLC
[25] = tested on: NCI-H460 lung
[26] = tested on: BT-549 breast
[27] = tested on: MCF7 breast
[28] = tested on: DU-145 prostate
[29] = tested on: PC-3 prostate
[30] = tested on: OVCAR-3 ovarian
[31] = tested on: HS 578T breast
[32] = tested on: NCI-H522 lung
[33] = tested on: KM12 colon
[34] = tested on: OVCAR-8 ovarian
[35] = tested on: HCT-116 colon
[36] = tested on: SF-539 CNS
[37] = tested on: HOP-92 NSCLC
[38] = tested on: EKVX NSCLC
[39] = tested on: MALME-3M melanoma
[40] = tested on: SR leukemia
[41] = tested on: NCI-H23 lung
[42] = tested on: SK-MEL-28 melanoma
[43] = tested on: LOX IMVI melanoma
[44] = tested on: NCI-H226 lung
[45] = tested on: SK-OV-3 ovarian
[46] = tested on: SW-620 colon
[47] = tested on: UACC-62 melanoma
[48] = tested on: MOLT-4 leukemia
[49] = tested on: SN12C renal
[50] = tested on: A549 NSCLC
[51] = tested on: T-47D breast
[52] = tested on: RPMI-8226 leukemia
[53] = tested on: UACC-257 melanoma
[54] = tested on: HCC-2998 colon
[55] = tested on: SNB-19 CNS

Cc1ccc([N+](=O)[O-])c(C(=O)Nc2ccc(-c3ccc4c(c3)NC(=O)/C4=C\c3ccc[nH]3)cc2)c1
GI50 [1]: > 100 µM
TGI [1]: > 100 µM
GI50 [2]: > 100 µM
TGI [2]: > 100 µM
GI50 [3]: 14.6 µM
TGI [3]: 30.6 µM
GI50 [4]: 24.4 µM
TGI [4]: > 100 µM
GI50 [5]: > 100 µM
TGI [5]: > 100 µM
GI50 [6]: 29.2 µM
TGI [6]: > 100 µM
GI50 [7]: > 100 µM
TGI [7]: > 100 µM
GI50 [8]: 16.4 µM
TGI [8]: 35.5 µM
GI50 [9]: 17.8 µM
TGI [9]: 55 µM
GI50 [10]: 53.1 µM
TGI [10]: > 100 µM
GI50 [11]: 24.4 µM
TGI [11]: 68.8 µM
GI50 [12]: > 100 µM
TGI [12]: > 100 µM
GI50 [13]: 0.267 µM
TGI [13]: 0.943 µM
GI50 [14]: 23 µM
TGI [14]: 49.8 µM
GI50 [15]: > 100 µM
TGI [15]: > 100 µM
GI50 [16]: 31.1 µM
TGI [16]: > 100 µM
GI50 [17]: 17 µM
TGI [17]: 38.1 µM
GI50 [18]: 22.7 µM
TGI [18]: 62 µM
GI50 [19]: > 100 µM
TGI [19]: > 100 µM
GI50 [20]: 23.9 µM
TGI [20]: > 100 µM
GI50 [21]: > 100 µM
TGI [21]: > 100 µM
GI50 [22]: > 100 µM
TGI [22]: > 100 µM
GI50 [23]: 43.6 µM
TGI [23]: > 100 µM
GI50 [24]: 22.2 µM
TGI [24]: 54 µM
GI50 [25]: 3.48 µM
TGI [25]: > 100 µM
GI50 [26]: 9.01 µM
TGI [26]: 61 µM
GI50 [27]: 0.237 µM
TGI [27]: 17.1 µM
GI50 [28]: 43.8 µM
TGI [28]: > 100 µM
GI50 [29]: > 100 µM
TGI [29]: > 100 µM
GI50 [30]: 27.6 µM
TGI [30]: 98.8 µM
GI50 [31]: 26.3 µM
TGI [31]: > 100 µM
GI50 [32]: 17 µM
TGI [32]: 45.6 µM
GI50 [33]: > 100 µM
TGI [33]: > 100 µM
GI50 [34]: 18.7 µM
TGI [34]: 39.7 µM
GI50 [35]: 23.2 µM
TGI [35]: > 100 µM
GI50 [36]: 25.4 µM
TGI [36]: > 100 µM
GI50 [37]: 21.3 µM
TGI [37]: 57.1 µM
GI50 [38]: 0.211 µM
TGI [38]: > 100 µM
GI50 [39]: 36.7 µM
TGI [39]: > 100 µM
GI50 [40]: 10.4 µM
TGI [40]: > 100 µM
GI50 [41]: 1.78 µM
TGI [41]: 19.2 µM
GI50 [42]: > 100 µM
TGI [42]: > 100 µM
GI50 [43]: 45.9 µM
TGI [43]: > 100 µM
GI50 [44]: 23.4 µM
TGI [44]: > 100 µM
GI50 [45]: 23.6 µM
TGI [45]: 63.2 µM
GI50 [46]: > 100 µM
TGI [46]: > 100 µM
GI50 [47]: 90.4 µM
TGI [47]: > 100 µM
GI50 [48]: 11.2 µM
TGI [48]: > 100 µM
GI50 [49]: 55.2 µM
TGI [49]: > 100 µM
GI50 [50]: > 100 µM
TGI [50]: > 100 µM
GI50 [51]: 0.515 µM
TGI [51]: 20.9 µM
GI50 [52]: > 100 µM
TGI [52]: > 100 µM
GI50 [53]: > 100 µM
TGI [53]: > 100 µM
GI50 [54]: 60 µM
TGI [54]: > 100 µM
GI50 [55]: 19.9 µM
TGI [55]: 50.3 µM

CNCCn1c(=O)c2cc(OC)c(OC)cc2c2cnc3cc4c(cc3c21)OCO4
GI50 [13]: < 0.01 µM
TGI [13]: < 0.0177 µM

O=C(Nc1ccc(Cl)cc1)Nc1nccs1
GI50 [13]: 0.398 µM
TGI [13]: 3.7 µM

C=CCn1c(SCC(=O)Nc2ccc(C(=O)/C=C/c3cc(OC)c(OC)c(OC)c3)cc2)nnc1-c1ccc(OC)cc1
GI50 [13]: 0.654 µM
TGI [13]: 2.57 µM

c1ccc2c(c1)c1ccccc1c1ccccc21
GI50 [13]: > 100 µM
TGI [13]: > 100 µM

O=C(N/N=C/c1ccc(O)cc1O)c1cccnc1
GI50 [13]: 2.23 µM
TGI [13]: 11.8 µM

CC(C)C[C@H](NC(=O)CNC(=O)C[C@H]1O[C@@H]2OC3(C)CC[C@H]4[C@H](C)CC[C@@H]([C@H]1C)[C@@]24OO3)B(O)O
GI50 [1]: 0.251 µM
TGI [1]: 2.74 µM
GI50 [2]: 24.3 µM
TGI [2]: > 65 µM
GI50 [3]: 0.162 µM
TGI [3]: 0.556 µM
GI50 [4]: 3.04 µM
TGI [4]: > 65 µM
GI50 [5]: 0.983 µM
TGI [5]: 3.46 µM
GI50 [6]: 2.17 µM
TGI [6]: 9.46 µM
GI50 [7]: 5.52 µM
TGI [7]: 16.5 µM
GI50 [8]: 2.39 µM
TGI [8]: 14.5 µM
GI50 [9]: 2.69 µM
TGI [9]: 13.8 µM
GI50 [10]: 2.64 µM
TGI [10]: 13.8 µM
GI50 [11]: 3.32 µM
TGI [11]: > 65 µM
GI50 [12]: 1.92 µM
TGI [12]: > 65 µM
GI50 [13]: 0.341 µM
TGI [13]: 1.56 µM
GI50 [14]: 5.48 µM
TGI [14]: > 65 µM
GI50 [15]: 0.275 µM
TGI [15]: 1.69 µM
GI50 [16]: 2.39 µM
TGI [16]: > 65 µM
GI50 [17]: 55.3 µM
TGI [17]: > 65 µM
GI50 [18]: 2.34 µM
TGI [18]: 51.4 µM
GI50 [19]: 0.21 µM
TGI [19]: 4.62 µM
GI50 [20]: 1.68 µM
TGI [20]: 10.3 µM
GI50 [21]: 1.09 µM
TGI [21]: 2.27 µM
GI50 [22]: 1.24 µM
TGI [22]: 3.46 µM
GI50 [23]: 4.75 µM
TGI [23]: > 65 µM
GI50 [24]: 3.05 µM
TGI [24]: 14.7 µM
GI50 [25]: 3.54 µM
TGI [25]: 18.9 µM
GI50 [26]: 0.261 µM
TGI [26]: 1.22 µM
GI50 [27]: 0.349 µM
TGI [27]: > 65 µM
GI50 [28]: 7.32 µM
TGI [28]: > 65 µM
GI50 [29]: 2.52 µM
TGI [29]: 57.8 µM
GI50 [30]: 0.583 µM
TGI [30]: 3.12 µM
GI50 [31]: 1.91 µM
TGI [31]: > 65 µM
GI50 [32]: 0.531 µM
TGI [32]: 1.67 µM
GI50 [33]: 1.67 µM
TGI [33]: 4.45 µM
GI50 [34]: 1.99 µM
TGI [34]: 8.04 µM
GI50 [35]: 0.437 µM
TGI [35]: 1.75 µM
GI50 [36]: 0.37 µM
TGI [36]: 1.54 µM
GI50 [37]: 1.5 µM
TGI [37]: 4.9 µM
GI50 [38]: 5.95 µM
TGI [38]: > 65 µM
GI50 [39]: 0.719 µM
TGI [39]: 2.79 µM
GI50 [40]: 0.188 µM
TGI [40]: 0.805 µM
GI50 [41]: 1.68 µM
TGI [41]: 8.45 µM
GI50 [42]: 0.716 µM
TGI [42]: 3.37 µM
GI50 [43]: 0.753 µM
TGI [43]: 1.68 µM
GI50 [44]: 0.455 µM
TGI [44]: 1.5 µM
GI50 [45]: 4.13 µM
TGI [45]: 38.2 µM
GI50 [46]: 0.437 µM
TGI [46]: 8.24 µM
GI50 [47]: 0.958 µM
TGI [47]: 2.21 µM
GI50 [48]: 0.267 µM
TGI [48]: 5.19 µM
GI50 [49]: 1.92 µM
TGI [49]: 7.92 µM
GI50 [50]: 3.03 µM
TGI [50]: > 65 µM
GI50 [51]: 0.771 µM
TGI [51]: 2.93 µM
GI50 [52]: 0.184 µM
TGI [52]: 0.604 µM
GI50 [53]: 0.818 µM
TGI [53]: 2.14 µM
GI50 [54]: 1.17 µM
TGI [54]: 2.21 µM
GI50 [55]: 3.44 µM
TGI [55]: > 65 µM
